Here are results for six compounds from ChEMBL document CHEMBL5444388, “Affinity Phenotypic Cellular Literature for EUbOPEN Chemogenomic Library” (2024).

The target in assay [1] is 5'-AMP-activated protein kinase catalytic subunit alpha-1 (Homo sapiens, UniProt Q13131). Description: Affinity Phenotypic Cellular interaction: (Cellular mechanistic pACC assay using IMR-32 neuroblastoma cells) EUB0000311b PRKAA1. It counts as functional, cell-based. On the set-up: mode of action Inhibitor, recommended concentration 100 nM.
The target in assay [2] is T1, Cytoplasmic tyrosine-protein kinase BMX (Homo sapiens) (UniProt P51813).
T1 sequence (whole entry): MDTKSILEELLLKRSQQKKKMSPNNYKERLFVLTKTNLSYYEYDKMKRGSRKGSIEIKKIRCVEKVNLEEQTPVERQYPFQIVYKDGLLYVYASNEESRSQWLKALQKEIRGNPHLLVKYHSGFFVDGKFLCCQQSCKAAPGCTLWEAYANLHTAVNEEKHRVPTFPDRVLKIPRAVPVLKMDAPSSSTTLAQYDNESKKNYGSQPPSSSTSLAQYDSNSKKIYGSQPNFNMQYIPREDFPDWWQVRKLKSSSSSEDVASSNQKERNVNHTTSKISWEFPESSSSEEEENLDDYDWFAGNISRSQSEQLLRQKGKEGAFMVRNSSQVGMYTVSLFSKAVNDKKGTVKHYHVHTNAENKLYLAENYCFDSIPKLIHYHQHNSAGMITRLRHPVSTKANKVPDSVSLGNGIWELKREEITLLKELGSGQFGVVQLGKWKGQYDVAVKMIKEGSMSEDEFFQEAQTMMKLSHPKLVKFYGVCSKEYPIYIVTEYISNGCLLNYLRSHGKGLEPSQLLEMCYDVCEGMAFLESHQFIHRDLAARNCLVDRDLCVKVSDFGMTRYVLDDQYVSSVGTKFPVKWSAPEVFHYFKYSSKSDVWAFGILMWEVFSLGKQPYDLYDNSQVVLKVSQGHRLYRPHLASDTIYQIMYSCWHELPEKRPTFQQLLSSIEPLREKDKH
Kind of assay: Affinity Phenotypic Cellular interaction: (Antiproliferative activity against Tel-kinase transformed Ba/F3 cell line, TEL-BMX) EUB0000045b BMX. It counts as functional, cell-based. Particulars: BaF3, Affinity Phenotypic Cellular Source Knowledge https://pubmed.ncbi.nlm.nih.gov/23594111/. On the set-up: recommended concentration 1 uM.

The target of assay [3] is Tyrosine-protein kinase BTK (Homo sapiens) (UniProt Q06187). Particulars: VCaP, Affinity Phenotypic Cellular Source Knowledge https://pubmed.ncbi.nlm.nih.gov/23594111/.
Assay [4] has as its target T1, Cytoplasmic tyrosine-protein kinase BMX (Homo sapiens). Description: Affinity Phenotypic Cellular interaction: (Antiproliferative activity assay (prostate cancer cell line, VCAP)) EUB0000045b BMX. It counts as functional, cell-based. Also on record: recommended concentration 1 uM. Conditions: Affinity Phenotypic Cellular Source Knowledge https://pubmed.ncbi.nlm.nih.gov/23594111/.

The target is the same in assay [5]. Description: Affinity Phenotypic Cellular interaction: (Antiproliferative activity assay (prostate cancer cell line, DU-145)) EUB0000045b BMX. Also on record: recommended concentration 1 uM. Particulars: Affinity Phenotypic Cellular Source Knowledge https://pubmed.ncbi.nlm.nih.gov/23594111/. It counts as functional, cell-based.
The target of assay [6] is Tyrosine-protein kinase BTK (Homo sapiens) (UniProt Q06187). Conditions: DU-145, Affinity Phenotypic Cellular Source Knowledge https://pubmed.ncbi.nlm.nih.gov/23594111/.
For assay [7], the target named is T1, Cytoplasmic tyrosine-protein kinase BMX (Homo sapiens). Kind of assay: Affinity Phenotypic Cellular interaction: (Antiproliferative activity against Tel-kinase wt Ba/F3 cell line) EUB0000045b BMX. It counts as functional, cell-based. On the set-up: recommended concentration 1 uM. Conditions: BaF3, Affinity Phenotypic Cellular Source Knowledge https://pubmed.ncbi.nlm.nih.gov/23594111/.

Assay [8] concerns the target Tyrosine-protein kinase BTK (Homo sapiens) (UniProt Q06187). Conditions: CWR22R, Affinity Phenotypic Cellular Source Knowledge https://pubmed.ncbi.nlm.nih.gov/23594111/.
Assay [9] shares this target. Particulars: PC-3, Affinity Phenotypic Cellular Source Knowledge https://pubmed.ncbi.nlm.nih.gov/23594111/.
Assay [10] has as its target T1, Cytoplasmic tyrosine-protein kinase BMX (Homo sapiens). Description: Affinity Phenotypic Cellular interaction: (Antiproliferative activity assay (prostate cancer cell line, PC-3)) EUB0000045b BMX. It counts as functional, cell-based. On the set-up: recommended concentration 1 uM. Particulars: Affinity Phenotypic Cellular Source Knowledge https://pubmed.ncbi.nlm.nih.gov/23594111/.

Assay [11] has the same target. Description: Affinity Phenotypic Cellular interaction: (Antiproliferative activity against Tel-kinase transformed Cys496Ser Ba/F3 cell line, TEL-BMX) EUB0000045b BMX. It counts as functional, cell-based. Also on record: recommended concentration 1 uM. Conditions: BaF3, Affinity Phenotypic Cellular Source Knowledge https://pubmed.ncbi.nlm.nih.gov/23594111/.
Assay [12] concerns the target Tyrosine-protein kinase BTK (Homo sapiens) (UniProt Q06187). Particulars: LNCaP C4-2, Affinity Phenotypic Cellular Source Knowledge https://pubmed.ncbi.nlm.nih.gov/23594111/.
For assay [13], the target named is T1, Cytoplasmic tyrosine-protein kinase BMX (Homo sapiens). Description: Affinity Phenotypic Cellular interaction: (Antiproliferative activity assay (prostate cancer cell line, C4-2)) EUB0000045b BMX. It counts as functional, cell-based. On the set-up: recommended concentration 1 uM. Particulars: LNCaP C4-2, Affinity Phenotypic Cellular Source Knowledge https://pubmed.ncbi.nlm.nih.gov/23594111/.

Assay [14] shares this target. Description: Affinity Phenotypic Cellular interaction: (Antiproliferative activity assay (prostate cancer cell line, RV-1)) EUB0000045b BMX. Conditions: CWR22R, Affinity Phenotypic Cellular Source Knowledge https://pubmed.ncbi.nlm.nih.gov/23594111/. On the set-up: recommended concentration 1 uM. It counts as functional, cell-based.
Assay [15] has as its target Tyrosine-protein kinase BTK (Homo sapiens) (UniProt Q06187). Conditions: BaF3, Affinity Phenotypic Cellular Source Knowledge https://pubmed.ncbi.nlm.nih.gov/23594111/.
For assay [16], the target named is T2, MAP kinase-activated protein kinase 2 (Homo sapiens, UniProt P49137). It counts as functional, cell-based, Monocyte.
Assay [17] concerns the target T3, MAP kinase-activated protein kinase 3 (Homo sapiens, UniProt Q16644). It counts as functional, cell-based, Monocyte.
Assay [18] deals with T4, MAP kinase-activated protein kinase 5 (Homo sapiens, UniProt Q8IW41).
T4 sequence (Q8IW41 whole entry): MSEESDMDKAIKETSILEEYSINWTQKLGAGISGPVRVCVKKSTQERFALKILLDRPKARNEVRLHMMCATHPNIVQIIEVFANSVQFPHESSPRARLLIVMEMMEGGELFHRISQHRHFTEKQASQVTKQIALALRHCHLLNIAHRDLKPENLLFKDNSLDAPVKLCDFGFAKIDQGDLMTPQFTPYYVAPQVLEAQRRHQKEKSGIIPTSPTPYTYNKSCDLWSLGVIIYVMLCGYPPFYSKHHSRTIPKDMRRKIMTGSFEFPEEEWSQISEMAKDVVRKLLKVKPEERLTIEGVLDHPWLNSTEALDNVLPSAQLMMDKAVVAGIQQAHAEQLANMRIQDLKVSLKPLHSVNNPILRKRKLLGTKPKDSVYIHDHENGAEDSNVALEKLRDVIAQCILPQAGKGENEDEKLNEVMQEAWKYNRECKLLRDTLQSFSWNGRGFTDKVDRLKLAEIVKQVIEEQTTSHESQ
It counts as functional, cell-based, Monocyte.

The target in assay [19] is T2, MAP kinase-activated protein kinase 2. It counts as functional, cell-based, Monocyte. This is another data set of the same source.
For assay [20], the target named is T4, MAP kinase-activated protein kinase 5. It counts as functional, cell-based, Monocyte. This is another data set of the same source.
Assay [21] concerns the target T2, MAP kinase-activated protein kinase 2. It counts as functional, cell-based, Monocyte. The source holds these as a separate data set.
Assay [22] has as its target T3, MAP kinase-activated protein kinase 3. It counts as functional, cell-based, Monocyte. This is another data set of the same source.
Assay [23] deals with T4, MAP kinase-activated protein kinase 5. It counts as functional, cell-based, Monocyte. The source holds these as a separate data set.
In assay [24] the target is T2, MAP kinase-activated protein kinase 2. It counts as functional, cell-based, Monocyte. This is another data set of the same source.
Assay [25] deals with T3, MAP kinase-activated protein kinase 3. It counts as functional, cell-based, Monocyte. The source holds these as a separate data set.
Assay [26] has as its target Protein arginine N-methyltransferase 7 (Homo sapiens, UniProt Q9NVM4). Description: Affinity Phenotypic Cellular interaction: (HSP70 monomethylation in C2C12 cells) EUB0000236b PRMT7. On the set-up: mode of action Negative control for SGC3027, recommended concentration 1 uM. It counts as functional, cell-based.
Assay [27] deals with Serine/threonine-protein kinase mTOR (Homo sapiens) (UniProt P42345). Kind of assay: Affinity Phenotypic Cellular interaction: (Anti-phosphorylation of AKT(S473) and S6K(T389) in insulin-like growth factor-I (IGF-I)-induced Rat1, the PIK3CA mutant MDA361, and PTEN-null U87MG cells) EUB0000607a MTOR. Conditions: Affinity Phenotypic Cellular Source Knowledge https://pubmed.ncbi.nlm.nih.gov/20068177/. It counts as functional, cell-based. On the set-up: recommended concentration 1 uM.

Assay [28] concerns the target Cyclin-dependent kinase 8 (Homo sapiens, UniProt P49336). Description: Affinity Phenotypic Cellular interaction: (Inhibition of pSTAT S727 in NK-92 cells) EUB0000163b CDK8. It counts as functional, cell-based. Also on record: mode of action Negative control for BI-1347, recommended concentration 100 nM.

T2 sequence (P49137 whole entry): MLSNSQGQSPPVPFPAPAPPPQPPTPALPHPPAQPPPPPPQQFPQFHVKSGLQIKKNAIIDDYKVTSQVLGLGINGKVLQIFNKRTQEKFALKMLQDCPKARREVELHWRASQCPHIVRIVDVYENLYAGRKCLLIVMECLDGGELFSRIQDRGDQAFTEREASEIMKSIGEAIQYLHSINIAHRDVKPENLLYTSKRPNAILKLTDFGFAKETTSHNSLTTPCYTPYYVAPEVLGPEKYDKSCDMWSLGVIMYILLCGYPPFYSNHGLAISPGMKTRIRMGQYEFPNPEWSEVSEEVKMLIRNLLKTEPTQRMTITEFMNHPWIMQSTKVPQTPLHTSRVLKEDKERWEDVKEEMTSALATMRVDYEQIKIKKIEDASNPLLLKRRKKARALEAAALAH
Tyrosine-protein kinase BTK (Homo sapiens), sequence (Q06187 whole entry): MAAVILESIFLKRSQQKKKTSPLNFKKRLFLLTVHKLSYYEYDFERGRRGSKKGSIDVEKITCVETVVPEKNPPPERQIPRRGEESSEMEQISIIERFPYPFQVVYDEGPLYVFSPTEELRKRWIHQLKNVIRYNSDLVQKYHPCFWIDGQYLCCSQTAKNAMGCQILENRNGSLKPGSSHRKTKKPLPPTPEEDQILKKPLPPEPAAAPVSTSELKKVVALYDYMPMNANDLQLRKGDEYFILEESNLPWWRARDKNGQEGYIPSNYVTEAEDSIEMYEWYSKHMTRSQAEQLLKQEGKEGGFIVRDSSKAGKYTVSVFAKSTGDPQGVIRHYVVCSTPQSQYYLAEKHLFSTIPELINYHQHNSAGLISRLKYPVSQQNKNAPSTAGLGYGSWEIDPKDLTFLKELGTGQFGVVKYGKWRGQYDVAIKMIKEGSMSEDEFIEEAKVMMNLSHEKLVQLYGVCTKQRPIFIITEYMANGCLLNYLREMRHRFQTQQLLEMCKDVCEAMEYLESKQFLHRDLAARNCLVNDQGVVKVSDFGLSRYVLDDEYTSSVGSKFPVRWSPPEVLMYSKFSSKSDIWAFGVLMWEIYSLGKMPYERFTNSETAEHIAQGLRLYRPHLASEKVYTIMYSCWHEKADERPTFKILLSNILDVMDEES
T3 sequence (Q16644 whole entry): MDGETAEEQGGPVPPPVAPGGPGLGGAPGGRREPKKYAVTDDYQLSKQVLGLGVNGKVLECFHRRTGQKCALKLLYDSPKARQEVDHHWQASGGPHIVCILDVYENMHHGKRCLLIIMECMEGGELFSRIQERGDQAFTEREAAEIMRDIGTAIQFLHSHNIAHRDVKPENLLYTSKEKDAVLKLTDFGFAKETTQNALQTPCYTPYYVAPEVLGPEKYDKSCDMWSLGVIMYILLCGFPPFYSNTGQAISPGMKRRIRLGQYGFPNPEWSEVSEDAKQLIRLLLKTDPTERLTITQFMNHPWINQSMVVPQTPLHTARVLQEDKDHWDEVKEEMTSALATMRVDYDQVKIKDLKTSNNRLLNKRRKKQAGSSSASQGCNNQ
Cyclin-dependent kinase 8, sequence (P49336 whole entry): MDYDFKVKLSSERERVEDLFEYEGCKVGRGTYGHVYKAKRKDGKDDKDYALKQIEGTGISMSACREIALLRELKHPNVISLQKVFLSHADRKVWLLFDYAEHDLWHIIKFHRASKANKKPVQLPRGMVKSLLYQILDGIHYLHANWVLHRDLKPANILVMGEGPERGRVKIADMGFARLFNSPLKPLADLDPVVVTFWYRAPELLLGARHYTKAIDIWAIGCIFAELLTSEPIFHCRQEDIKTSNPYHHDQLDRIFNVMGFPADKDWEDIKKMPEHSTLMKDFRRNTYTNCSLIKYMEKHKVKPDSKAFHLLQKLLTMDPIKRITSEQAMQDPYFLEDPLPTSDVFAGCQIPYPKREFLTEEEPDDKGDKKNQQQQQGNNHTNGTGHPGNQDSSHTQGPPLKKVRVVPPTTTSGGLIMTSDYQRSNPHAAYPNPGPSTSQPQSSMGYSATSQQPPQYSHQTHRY
Protein arginine N-methyltransferase 7, sequence (Q9NVM4 whole entry): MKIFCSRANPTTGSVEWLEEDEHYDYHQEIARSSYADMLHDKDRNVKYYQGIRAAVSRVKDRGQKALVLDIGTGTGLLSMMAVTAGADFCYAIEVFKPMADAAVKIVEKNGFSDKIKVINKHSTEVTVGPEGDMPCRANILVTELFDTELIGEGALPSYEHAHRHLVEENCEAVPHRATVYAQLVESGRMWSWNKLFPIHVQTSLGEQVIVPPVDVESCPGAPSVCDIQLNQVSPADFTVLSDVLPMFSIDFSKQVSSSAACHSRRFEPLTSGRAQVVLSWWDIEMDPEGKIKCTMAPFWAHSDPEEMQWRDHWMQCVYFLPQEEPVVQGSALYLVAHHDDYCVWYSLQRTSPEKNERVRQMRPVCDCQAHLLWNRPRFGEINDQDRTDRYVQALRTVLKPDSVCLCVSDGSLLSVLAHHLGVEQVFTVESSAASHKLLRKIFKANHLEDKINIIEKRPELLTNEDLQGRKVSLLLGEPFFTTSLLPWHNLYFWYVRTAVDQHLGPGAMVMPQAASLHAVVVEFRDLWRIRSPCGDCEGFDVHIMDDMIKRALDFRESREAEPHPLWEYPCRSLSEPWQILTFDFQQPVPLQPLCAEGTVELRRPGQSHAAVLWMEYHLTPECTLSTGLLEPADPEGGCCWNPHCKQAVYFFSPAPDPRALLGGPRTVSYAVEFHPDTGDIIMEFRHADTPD
5'-AMP-activated protein kinase catalytic subunit alpha-1, sequence (Q13131 whole entry): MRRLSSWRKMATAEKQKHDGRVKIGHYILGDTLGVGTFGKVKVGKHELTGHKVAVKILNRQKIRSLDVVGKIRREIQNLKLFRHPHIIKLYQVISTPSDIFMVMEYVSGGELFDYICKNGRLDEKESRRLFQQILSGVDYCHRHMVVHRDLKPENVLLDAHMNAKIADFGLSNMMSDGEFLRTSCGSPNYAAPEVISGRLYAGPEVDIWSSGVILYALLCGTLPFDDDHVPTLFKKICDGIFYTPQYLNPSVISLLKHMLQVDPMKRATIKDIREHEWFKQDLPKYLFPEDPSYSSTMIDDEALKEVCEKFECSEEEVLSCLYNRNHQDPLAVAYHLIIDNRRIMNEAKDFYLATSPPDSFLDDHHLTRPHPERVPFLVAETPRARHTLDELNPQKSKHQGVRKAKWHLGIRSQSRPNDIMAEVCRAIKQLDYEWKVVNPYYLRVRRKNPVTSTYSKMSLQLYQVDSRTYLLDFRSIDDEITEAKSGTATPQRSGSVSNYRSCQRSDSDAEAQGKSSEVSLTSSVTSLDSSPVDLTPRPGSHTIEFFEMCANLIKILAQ

Turning to `CCc1ccccc1C(=O)Nc1n[nH]c2c(C)c(F)c(C3C(C#N)=C(C)N(C)C(C)=C3C#N)cc12` [BAY-3827], the EC50 (usually the concentration giving half of the maximal effect) in [1] came out at 150 nM.
As to `C=CC(=O)Nc1cc(-n2c(=O)ccc3cnc4ccc(-c5ccc(NS(C)(=O)=O)cc5)cc4c32)ccc1C`, the GIC50 was 25 nM in assay [2]; 2460 nM in assay [3]; 2460 nM in [4]; 4.38 µM in assay [5]; 4.38 µM in assay [6]; 10 µM in assay [7]. Besides, the GIC50 in [8] is 2540 nM; in assay [9], 5.37 µM; in [10], 5.37 µM; in [11], more than 50 µM; in [12], more than 10 µM; in assay [13], more than 10 µM. Further, the GIC50 in [14] is 2540 nM; in [15] it was more than 10 µM.
On to `Cc1ccc(-c2ccc3c(ccc4sc5c(c43)NC[C@@H](C)NC5=O)n2)cn1`, for which the IC50 (usually the midpoint of a concentration-inhibition curve) in [16] came to 2780 nM; in assay [17] it was 2090 nM; in assay [18], 1260 nM; in [19] it was 130 nM; in assay [20] it was 2780 nM; in [21] it was 2090 nM. Moreover, the IC50 was determined as 1260 nM in assay [22], 2090 nM in assay [23], 1260 nM in assay [24] and 2780 nM in assay [25].
For the compound `CC1=C(C)C(=O)C(C(C)(C)CC(=O)N(CCCCSC[C@H]2O[C@@H](n3cnc4c(N)ncnc43)[C@@H]3OC(C)(C)O[C@@H]32)Cc2cccc(-c3ccc(Cl)cc3)c2)=C(C)C1=O`, the IC50 in assay [26] was more than 40 µM.
Consider `CNC(=O)Nc1ccc(-c2nc(N3CC4CCC(C3)O4)c3cnn(C4CCC5(CC4)OCCO5)c3n2)cc1`, for which, in assay [27], the ED50 stood at 200 nM.
In the case of `CN(C)C(=O)Cn1cc(-c2ccc(-c3nnc4ccccn34)cc2)cn1`, in assay [28], the IC50 is more than 10 µM.
